Data on three compounds can be found in ChEMBL document CHEMBL1201862, “PubChem BioAssay data set” (2004).

A word on the IC50: it is the concentration that inhibits the measured activity by half.

Activity calls are given as the source filed them. Cut-off read from the data, not from the text of the source: actives have a measured IC50 and inactives only a lower limit.

Chain of Envelope glycoprotein gp160 (Q6QLK5 whole entry, the tested form may be a part): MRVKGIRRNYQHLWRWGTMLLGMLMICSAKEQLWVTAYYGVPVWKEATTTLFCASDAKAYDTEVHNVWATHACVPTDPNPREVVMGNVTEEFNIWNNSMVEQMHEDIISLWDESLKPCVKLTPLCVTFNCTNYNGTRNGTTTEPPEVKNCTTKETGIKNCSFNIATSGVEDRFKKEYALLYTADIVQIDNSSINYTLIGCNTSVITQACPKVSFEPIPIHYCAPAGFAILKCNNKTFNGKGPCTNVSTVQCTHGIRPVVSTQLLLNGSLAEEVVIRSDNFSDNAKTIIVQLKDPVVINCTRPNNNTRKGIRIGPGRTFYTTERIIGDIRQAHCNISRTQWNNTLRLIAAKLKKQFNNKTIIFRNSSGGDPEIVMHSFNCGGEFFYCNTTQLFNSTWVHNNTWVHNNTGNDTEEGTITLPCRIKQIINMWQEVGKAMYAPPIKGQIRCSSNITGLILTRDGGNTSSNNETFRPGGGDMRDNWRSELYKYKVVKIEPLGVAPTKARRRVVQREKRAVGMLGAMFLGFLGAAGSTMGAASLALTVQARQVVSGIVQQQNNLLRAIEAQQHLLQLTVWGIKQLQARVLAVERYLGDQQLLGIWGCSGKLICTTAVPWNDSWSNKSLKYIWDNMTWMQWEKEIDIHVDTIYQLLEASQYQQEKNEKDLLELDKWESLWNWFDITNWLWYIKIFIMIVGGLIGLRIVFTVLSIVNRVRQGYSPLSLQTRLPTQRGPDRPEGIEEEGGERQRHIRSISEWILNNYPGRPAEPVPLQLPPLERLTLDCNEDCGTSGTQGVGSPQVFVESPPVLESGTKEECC

The experiment has as its target Envelope glycoprotein gp160 (Human immunodeficiency virus 1, UniProt Q6QLK5). The experiment is described as follows: cell-free HIV fusion peptide-binding blockers – biochemical, uHTS, fluorescence dequenching, […] (AID 1986).
As for `Cc1ccc(NS(=O)(=O)c2ccc(N/N=C/c3ccccc3OCC(=O)O)c([N+](=O)[O-])c2)c(C)c1`, the half-maximal inhibitory concentration (IC50) was 13.8 µM (active). Consider `COc1ccccc1N1N=C(C(=O)c2ccccc2)C2C(=O)N(c3ccc(Br)cc3)C(=O)C21` (stereo not drawn), for which the half-inhibitory concentration (IC50) is 14.6 µM (active).

`COc1cc(/C=C2\S/C(=N\c3ccccc3)N(CCc3c[nH]c4ccccc34)C2=O)ccc1OC(C)C(=O)O` (stereo not drawn): the half-inhibitory concentration (IC50) is 16.9 µM (active).
